Source: the supplement of paper PMC10307832

Assays:
Test in all cases: relative viability (nuclei count vs DMSO), 5 days (fraction); higher = more cells survive
AZD6482 + Foretinib = compound: Cc1cc([C@@H](C)Nc2ccccc2C(=O)O)c2nc(N3CCOCC3)cc(=O)n2c1 [AZD6482] + COc1cc2c(Oc3ccc(NC(=O)C4(C(=O)Nc5ccc(F)cc5)CC4)cc3F)ccnc2cc1OCCCN1CCOCC1 [Foretinib] (partner 0.25 µM)
Summary of the method: (§1)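 One day after seeding in 1536-well plates, lung cancer cell lines were dosed by pin tool. Dosing was either single-drug or a fixed anchor-drug dose plus five library-drug doses (not always all listed) in √10 steps. After 5 days, nuclei were stained in one fix-and-stain step and counted on 4× images, and relative viability is the nuclei count of treated wells over that of vehicle wells, given as the median of duplicate plates.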

AZD6482 + Crizotinib = compound: Cc1cc([C@@H](C)Nc2ccccc2C(=O)O)c2nc(N3CCOCC3)cc(=O)n2c1 [AZD6482] + C[C@@H](Oc1cc(-c2cnn(C3CCNCC3)c2)cnc1N)c1c(Cl)ccc(F)c1Cl [Crizotinib] (partner 1 µM)
Summary of the method: as §1

[1] = compound: COc1cc2nc(N3CCCN(C)CC3)nc(NC3CCN(Cc4ccccc4)CC3)c2cc1OC + Cc1nc(Nc2ncc(C(=O)Nc3c(C)cccc3Cl)s2)cc(N2CCN(CCO)CC2)n1 [Dasatinib] (partner 0.075 µM)
Summary of the method: as §1

[2] = compound: COc1cc2nc(N3CCCN(C)CC3)nc(NC3CCN(Cc4ccccc4)CC3)c2cc1OC + Cc1nc(NC(=O)N2CCC[C@H]2C(N)=O)sc1-c1ccnc(C(C)(C)C(F)(F)F)c1 [Alpelisib] (partner 2 µM)
Summary of the method: as §1

Cell Line	relative viability (AZD6482 + Foretinib; first compound 0.08 µM)	relative viability (AZD6482 + Foretinib; first compound 0.253 µM)	relative viability (AZD6482 + Foretinib; first compound 0.8 µM)	relative viability (AZD6482 + Foretinib; first compound 2.53 µM)	relative viability (AZD6482 + Foretinib; first compound 8 µM)	relative viability (AZD6482 + Crizotinib; first compound 0.08 µM)	relative viability (AZD6482 + Crizotinib; first compound 0.253 µM)	relative viability (AZD6482 + Crizotinib; first compound 0.8 µM)	relative viability (AZD6482 + Crizotinib; first compound 2.53 µM)	relative viability (AZD6482 + Crizotinib; first compound 8 µM)	relative viability ([1]; first compound 0.2 µM)	relative viability ([1]; first compound 0.6325 µM)	relative viability ([1]; first compound 2 µM)	relative viability ([1]; first compound 6.325 µM)	relative viability ([2]; first compound 0.2 µM)	relative viability ([2]; first compound 0.6325 µM)	relative viability ([2]; first compound 2 µM)	relative viability ([2]; first compound 6.325 µM)
NCI-H322M	0.823	0.847	0.897	0.543	0.738	0.769	0.826	0.79	0.627	0.741	0.258	0.281	0.274	0.26	0.741	0.814	0.781	0.68
NCI-H358	0.484	0.706	0.679	0.407	0.489	0.514	0.592	0.566	0.417	0.383	0.163	0.205	0.146	0.171	0.935	0.888	1.01	0.533
NCI-H441	0.852	0.806	1.21	–	0.87	0.651	0.689	0.782	0.443	0.507	0.602	0.616	0.532	0.599	0.919	–	0.601	0.655
NCI-H460	1.03	0.977	1	0.828	0.719	0.874	0.644	0.99	0.6	0.471	0.532	0.534	0.415	0.43	0.481	0.483	0.42	0.242
NCI-H520	0.423	0.661	0.493	0.203	0.304	0.623	0.615	0.523	–	0.4	0.217	0.228	0.252	0.187	0.947	0.98	0.867	0.452
NCI-H596	0.84	0.853	0.766	0.635	0.599	0.792	0.824	1	0.943	0.871	0.659	0.652	0.638	0.654	0.616	0.458	0.498	0.44
NCI-H647	0.86	1.3	0.946	0.721	0.623	0.902	–	0.748	0.479	0.648	0.201	0.233	0.192	0.149	1.12	1.13	1.18	0.448
NCI-H650	1.02	–	0.978	0.651	0.704	0.635	–	0.786	0.442	0.47	0.48	0.472	0.441	0.38	1.06	0.997	1.18	1
NCI-H661	0.962	1.06	1.14	0.723	0.815	–	1.03	1.02	–	0.971	0.957	0.955	0.966	0.83	0.556	0.64	0.809	0.774
NCI-H727	0.828	0.862	1.03	0.786	0.797	0.684	0.971	0.864	–	0.824	0.302	0.461	0.452	0.322	0.633	0.615	0.593	0.328
NCI-H838	0.855	0.964	0.873	0.581	0.469	0.593	0.824	0.689	0.48	0.583	0.316	0.319	0.33	0.237	1.04	1.14	1.09	0.853
NCI-H1355	0.769	0.812	0.962	0.713	0.641	0.777	0.959	1.07	0.797	0.726	0.761	0.777	0.787	0.783	0.83	0.861	0.856	0.805
NCI-H1437	1.2	1.33	1.31	1.13	0.923	0.921	0.949	1.02	0.788	0.872	0.48	0.454	0.492	0.384	0.995	0.971	1.12	0.828
NCI-H1563	0.89	0.875	0.908	0.765	0.652	0.783	0.821	0.82	0.663	0.769	0.469	0.467	0.441	0.421	0.954	0.904	0.834	0.73
NCI-H1651	0.624	0.699	0.736	0.566	0.636	0.816	0.857	0.874	0.835	0.729	0.383	0.523	0.47	0.413	0.921	0.915	1.16	1.1
NCI-H1666	0.914	0.868	1.03	0.785	0.989	0.84	1.11	0.823	0.712	0.989	0.819	0.847	0.788	0.718	0.924	0.993	0.951	0.461
NCI-H1734	0.829	0.788	0.875	0.604	0.671	0.627	0.733	0.622	0.47	0.471	0.524	0.37	0.46	0.416	0.657	0.613	0.798	0.736
NCI-H1755	0.807	0.834	0.851	0.669	0.603	0.717	0.769	0.704	0.545	0.487	0.436	0.395	0.416	0.423	0.979	0.844	0.916	0.871
NCI-H1915	1.05	1.02	1.1	1	1.09	0.845	0.8	0.935	0.838	0.863	0.35	0.355	0.338	0.349	1.06	0.998	1.1	1.1
NCI-H1944	0.866	0.892	0.872	0.686	0.697	1.01	1.07	1.12	0.836	0.792	0.199	0.245	0.204	0.232	0.822	0.909	–	0.912
NCI-H1975	0.889	0.872	0.951	0.709	0.558	0.841	0.908	1.03	0.737	0.764	0.342	0.438	0.464	0.287	0.718	0.597	0.727	0.616
NCI-H1993	0.674	0.745	0.846	0.558	0.562	0.671	0.74	–	–	0.764	0.568	0.657	0.657	0.574	0.668	0.637	0.692	0.662
NCI-H2009	1.12	1.24	1.24	0.83	0.747	0.884	1.03	1.05	0.693	0.813	0.308	0.324	0.493	0.296	1.24	1.07	1.18	1.07
NCI-H2023	0.83	0.757	1.02	0.477	0.518	0.535	0.615	0.509	0.411	0.494	0.57	0.558	0.56	0.237	0.661	0.634	0.714	0.331
NCI-H2085	0.62	0.637	0.338	0.308	0.29	0.818	0.537	0.519	0.316	0.358	0.217	0.306	0.262	0.206	1.06	0.972	1	0.799
NCI-H2087	1.07	0.972	1.12	–	1.08	0.805	0.93	0.997	0.827	0.984	0.7	0.75	0.941	0.617	1.15	1.2	1.27	1.05
NCI-H2126	1.08	0.954	1.12	0.757	0.724	0.954	0.987	1.01	0.787	0.777	0.583	0.678	0.597	0.502	0.83	0.734	0.761	0.717
NCI-H2170	0.977	1	0.955	0.922	0.785	1.11	1.15	1.23	1.05	0.851	0.658	0.594	0.638	0.583	0.838	0.805	0.851	0.835
NCI-H2228	–	0.791	0.862	0.694	0.649	0.368	0.46	0.308	0.254	0.275	0.514	0.488	0.496	0.243	0.587	0.685	0.661	0.409
NCI-H2347	0.646	0.569	0.946	0.557	0.74	–	0.609	0.581	0.425	0.498	0.36	0.339	0.304	0.274	0.929	1.02	1.03	0.831
